The CheMixHub viscosity set
± gives the uncertainty stated by the source.

Experiment: xn = mol fraction of the nth substance listed

C1CCCCC1 + Cc1ccccc1
viscosity [mPa·s]
Settings	101 kPa	101.33 kPa
293.95 K, x1 = 0.1	–	0.6126 ± 0.0071
294.15 K, x1 = 0.5	–	0.6762 ± 0.0079
294.25 K, x1 = 0.2	–	0.6123 ± 0.0071
294.45 K, x1 = 0.3	–	0.6228 ± 0.0072
294.75 K, x1 = 0.4	–	0.6357 ± 0.0074
294.75 K, x1 = 0.6	–	0.6922 ± 0.0081
296.15 K, x1 = 0.8	–	0.778 ± 0.0091
303 K, x2 = 0.04	0.7881 ± 0.0064	–
303 K, x2 = 0.081	0.7486 ± 0.0061	–
303 K, x2 = 0.162	0.6926 ± 0.0057	–
303 K, x2 = 0.324	0.6161 ± 0.0051	–
303 K, x2 = 0.484	0.5705 ± 0.0048	–
303 K, x2 = 0.644	0.5419 ± 0.0046	–
303 K, x2 = 0.803	0.5252 ± 0.0045	–
303 K, x2 = 0.882	0.5268 ± 0.0045	–
303 K, x2 = 0.96	0.5298 ± 0.0045	–
303.15 K, x1 = 0.0958	0.5395 ± 0.0076	–
303.15 K, x1 = 0.0999	0.5263 ± 0.0039	–
303.15 K, x1 = 0.2	0.5319 ± 0.0039	0.5546 ± 0.0064
303.15 K, x1 = 0.2959	0.5409 ± 0.0039	–
303.15 K, x1 = 0.4126	0.5566 ± 0.004	–
303.15 K, x1 = 0.4964	0.5726 ± 0.0041	–
303.15 K, x1 = 0.6005	0.6005 ± 0.0042	–
303.15 K, x1 = 0.7032	0.6367 ± 0.0044	–
303.15 K, x1 = 0.7978	0.6827 ± 0.0046	–
303.15 K, x1 = 0.8946	0.7448 ± 0.0048	–
303.15 K, x2 = 0.0999	0.7364 ± 0.0077	–
303.15 K, x2 = 0.2003	0.6714 ± 0.0073	–
303.15 K, x2 = 0.3	0.6226 ± 0.0071	–
303.15 K, x2 = 0.3999	0.5886 ± 0.0069	–
303.15 K, x2 = 0.5	0.5635 ± 0.0068	–
303.15 K, x2 = 0.6	0.5481 ± 0.0067	–
303.15 K, x2 = 0.6999	0.5352 ± 0.0066	–
303.15 K, x2 = 0.7998	0.5283 ± 0.0066	–
303.15 K, x2 = 0.9	0.5256 ± 0.0066	–
303.45 K, x1 = 0.1	–	0.5477 ± 0.0063
303.45 K, x1 = 0.3	–	0.5618 ± 0.0065
303.45 K, x1 = 0.8	–	0.7003 ± 0.0082
303.75 K, x1 = 0.5	–	0.5991 ± 0.0069
303.95 K, x1 = 0.4	–	0.5688 ± 0.0066
304.25 K, x1 = 0.6	–	0.6143 ± 0.0071
308.15 K, x2 = 0.0999	0.6829 ± 0.0074	–
308.15 K, x2 = 0.2003	0.6256 ± 0.0071	–
308.15 K, x2 = 0.3	0.5822 ± 0.0068	–
308.15 K, x2 = 0.3999	0.5527 ± 0.0067	–
308.15 K, x2 = 0.5	0.5308 ± 0.0066	–
308.15 K, x2 = 0.6	0.5152 ± 0.0065	–
308.15 K, x2 = 0.6999	0.5054 ± 0.0065	–
308.15 K, x2 = 0.7998	0.4991 ± 0.0064	–
308.15 K, x2 = 0.9	0.497 ± 0.0064	–
312.45 K, x1 = 0.1	–	0.4994 ± 0.0058
312.45 K, x1 = 0.3	–	0.51 ± 0.0059
312.95 K, x1 = 0.8	–	0.6059 ± 0.007
313.15 K, x1 = 0.2	–	0.4976 ± 0.0057
313.15 K, x1 = 0.4	–	0.5137 ± 0.0059
313.15 K, x1 = 0.4974	0.5095 ± 0.0075	–
313.15 K, x2 = 0.0999	0.6359 ± 0.0071	–
313.15 K, x2 = 0.2003	0.585 ± 0.0069	–
313.15 K, x2 = 0.3	0.5466 ± 0.0067	–
313.15 K, x2 = 0.3999	0.5206 ± 0.0065	–
313.15 K, x2 = 0.5	0.4996 ± 0.0065	–
313.15 K, x2 = 0.7998	0.4731 ± 0.0063	–
313.15 K, x2 = 0.9	0.4707 ± 0.0063	–
313.45 K, x1 = 0.5	–	0.5412 ± 0.0062
313.65 K, x1 = 0.6	–	0.5482 ± 0.0063
318.15 K, x2 = 0.0999	0.5914 ± 0.0069	–
318.15 K, x2 = 0.2003	0.548 ± 0.0067	–
318.15 K, x2 = 0.3	0.5136 ± 0.0065	–
318.15 K, x2 = 0.3999	0.4913 ± 0.0064	–
318.15 K, x2 = 0.5	0.4722 ± 0.0063	–
318.15 K, x2 = 0.6	0.4614 ± 0.0063	–
318.15 K, x2 = 0.6999	0.4531 ± 0.0062	–
318.15 K, x2 = 0.7998	0.449 ± 0.0062	–
318.15 K, x2 = 0.9	0.447 ± 0.0062	–
322.75 K, x1 = 0.8	–	0.5481 ± 0.0063
323.15 K, x1 = 0.5989	0.4735 ± 0.0073	–
323.15 K, x2 = 0.0999	0.5534 ± 0.0067	–
323.15 K, x2 = 0.2003	0.5139 ± 0.0065	–
323.15 K, x2 = 0.3	0.4839 ± 0.0064	–
323.15 K, x2 = 0.3999	0.4632 ± 0.0063	–
323.15 K, x2 = 0.5	0.4466 ± 0.0062	–
323.15 K, x2 = 0.6	0.4383 ± 0.0062	–
323.15 K, x2 = 0.6999	0.4304 ± 0.0062	–
323.15 K, x2 = 0.7998	0.4264 ± 0.0061	–
323.15 K, x2 = 0.9	0.4243 ± 0.0061	–

COC(C)=O + Cc1ccccc1
viscosity [mPa·s], 101 kPa
Settings	298.15 K	308.15 K
x1 = 0.0413	0.536 ± 0.005	0.487 ± 0.004
x1 = 0.1501	0.502 ± 0.004	0.459 ± 0.004
x1 = 0.2505	0.476 ± 0.004	0.437 ± 0.004
x1 = 0.3495	0.454 ± 0.004	0.419 ± 0.004
x1 = 0.4385	0.437 ± 0.004	0.404 ± 0.004
x1 = 0.4859	0.429 ± 0.004	0.397 ± 0.004
x1 = 0.5491	0.42 ± 0.004	0.389 ± 0.004
x1 = 0.6486	0.407 ± 0.004	0.377 ± 0.004
x1 = 0.7514	0.397 ± 0.004	0.367 ± 0.004
x1 = 0.848	0.39 ± 0.004	0.36 ± 0.004
x1 = 0.9445	0.386 ± 0.004	0.354 ± 0.004

COCCOC + Cc1ccccc1
298.15 K, 101 kPa
Settings	viscosity [mPa·s]
x1 = 0.102	0.535 ± 0.015
x1 = 0.2036	0.509 ± 0.014
x1 = 0.3047	0.486 ± 0.014
x1 = 0.4053	0.462 ± 0.013
x1 = 0.5055	0.444 ± 0.013
x1 = 0.6053	0.434 ± 0.013
x1 = 0.7046	0.429 ± 0.013
x1 = 0.8035	0.425 ± 0.013
x1 = 0.902	0.419 ± 0.013
